Publication PMC9851200, “Multiparameter phenotypic screening for endogenous TFEB and TFE3 translocation identifies novel chemical series modulating lysosome function” (Autophagy, 2022)

How the values were obtained:
[1] = tested on: SH-SY5Y cells; test: AK (adenylate kinase) release ToxiLight cytotoxicity assay; settings: PKIS2 primary screening; also: reference of the scale not given here
[2] = tested on: endogenous TFE3; test: TFE3 nuclear translocation, immunocytochemistry high-content imaging; assay type: cell-based; settings: PKIS2 primary screening
[3] = tested on: SH-SY5Y cells; settings: PKIS2 primary screening; for DQ Intensity: DQ Red BSA intensity; for DQ Spot: DQ Red BSA spot count; as to all read-outs here: reference of the scale not given here
[4] = tested on: endogenous TFEB; test: TFEB nuclear translocation, immunocytochemistry high-content imaging; assay type: cell-based; settings: PKIS2 primary screening
[5] = tested on: SH-SY5Y cells; test: Nuclear count from microscopy images (cellular growth and toxicity); settings: PKIS2 primary screening; also: reference of the scale not given here

SMILES	AK [1]	TFE3 % [2] [%]	DQ Intensity [3]	DQ Spot [3]	TFEB % [4] [%]	Nuclear Count [5]
COc1ccc(Nc2nccc(NCCNC(=O)Nc3cc(C)ccc3C)n2)cc1 [GSK1379899]	79.47	15.31	123.56	108.96	7.12	88.82
COc1ccc(Nc2nccc(NCCNC(=O)Nc3ccccc3F)n2)cc1 [GSK1379901]	100.88	12.56	112.97	125.52	13.61	49.37
O=C(NCCNc1ccnc(NCc2ccc(F)cc2)n1)c1cc2ccccc2s1 [GSK1379944]	378.86	12.27	122.34	117.48	8.85	79.28
Cc1cc(-c2ccnc(Nc3cccc(C#N)c3)n2)cc(C)c1O [GSK1440913]	97.58	21.61	63.54	78.51	7.49	76.93
CNC(=O)c1ccccc1Nc1nc(Nc2cccc(CS(C)(=O)=O)c2)ncc1C [GSK1520489]	149.13	10.71	192.20	118.45	10.40	38.33
COc1ccc(Nc2ncc(C#N)c(Nc3ccccc3C(N)=O)n2)cc1N1CCN(C)CC1 [GSK1558669]	96.14	11.88	142.11	120.07	5.16	62.25
CNC(=O)c1ccccc1Nc1nc(Nc2ccc(N3CCOCC3)cc2)ncc1Cl [GSK1576028]	149.21	5.85	165.31	111.32	42.50	15.51
Cc1cc(N2CCC(NS(=O)(=O)c3ccc(F)cc3)CC2)nc(Nc2cccc(C#N)c2)n1 [GSK1653537]	183.29	18.21	104.60	98.84	10.28	84.44
COc1ccc(S(=O)(=O)NC2CCN(c3cc(C)nc(Nc4cccc(C#N)c4)n3)CC2)cc1 [GSK1653539]	67.09	12.26	59.46	82.66	5.30	97.37
Cc1cc(N2Cc3ccccc3C2)nc(Nc2ccc(S(=O)(=O)N3CCOCC3)cc2)n1 [GSK1669917]	117.66	8.23	64.14	76.32	1.55	138.98
N#Cc1ccc(CCNc2nccc(-c3cccc(CN4CCNCC4)c3)n2)cc1 [GSK2137462]	187.39	23.49	97.76	74.26	6.80	74.38
Nc1n[nH]c2cc(-c3ccccn3)ccc12 [GSK2189892]	114.93	11.18	114.80	107.54	8.33	100.38
Nc1cccc(-c2ccc3c(N)n[nH]c3c2)n1 [GSK2192730]	126.21	14.87	80.06	98.33	5.46	95.98
Nc1cccc(-c2ccc3c(N)n[nH]c3c2)c1 [GSK2193613]	94.13	9.08	55.67	76.28	4.96	112.12
CNc1nccc(-c2ccc3c(N)n[nH]c3c2)n1 [GSK2206003]	89.67	14.62	68.32	96.17	3.51	71.44
